Laboratory results reported in PubChem BioAssay (NCI).
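Each compound was tested at five concentrations against cells in 96-well plates for 48 hours. Abbreviation: GI50, concentration required for 50% inhibition of growth. The concentration for full growth arrest is given as TGI.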

system: OVCAR-8 ovarian; assay: NCI tumour cell line growth inhibition, 48 h

Row | SMILES | TGI | GI50
1 | COc1cc2c(cc1O)CC[n+]1cc3c(OC)c(OC)ccc3cc1-2 | > 100 µM | –
2 | CC[P+](C#Cc1ccccc1)(c1ccccc1)c1ccccc1 | 6.2 µM | –
3 | Cc1ccc(C(=O)c2[nH]c(Nc3cc(C)ccn3)c(C(=S)Nc3ccccc3)c2N)cc1 | > 100 µM | –
4 | CC(C)Cc1c(C#N)c(C#N)c(N)n1Cc1ccccc1 | > 100 µM | –
5 | NS(=O)(=O)c1nnc(NSc2ccc([N+](=O)[O-])cc2)s1 | > 100 µM | –
6 | Nc1nc(Nc2ccc(OCc3cccc(F)c3)cc2)c2c(n1)[nH]c1ccc(O)cc12 | 13.2 µM | 3.49 µM
7 | CC1=NC(C)(C)N(O)C1(C)C | > 100 µM | –
8 | O=c1oc2ccccc2c2nc3ccccc3cc12 | > 100 µM | –
9 | Clc1cccc(C2ON=C(c3ccccc3)N2C23CC4CC(CC(C4)C2)C3)c1Cl (configuration not stated) | > 10 µM | –
10 | CCN(CC(=O)O)CC(=O)O | > 100 µM | –
11 | Cc1cc(C)nc(NS(=O)(=O)c2ccc(Nc3c4ccccc4nc4c(C(=O)NCCO)cccc34)cc2)n1 | > 100 µM | –
12 | CC(C)(C)c1ccc2c(c1)OCc1n[nH]c(n1)COc1cc(C(C)(C)C)ccc1OCCOCCO2 | 14.3 µM | –
13 | COC1OC2COC(C)(C)OC2C2OC(C)(C)OC12 (configuration not stated) | > 100 µM | –
14 | CCNC(=S)N/N=C/c1ccccn1 | > 100 µM | –
15 | COc1ccc(CCCCl)c(C2=NCCc3ccccc32)c1 | > 100 µM | –
16 | O=C1NN=C(c2c[nH]c3ccccc23)CC1NCc1ccccc1 (configuration not stated) | > 100 µM | –
17 | O=C(CN=C(CN(c1ccccc1)c1ccccc1)Oc1c(Cl)cc(Cl)cc1Cl)n1cnc2ccccc21 | > 100 µM | –
18 | C=C1CC=CC(C)(C)C1C/C=C(\C)C(O)CBr (configuration not stated) | > 100 µM | –
19 | O=C(NCCCNCCCCNCCCNC(=O)C(F)(F)F)C(F)(F)F | > 100 µM | –
20 | O=C(O)c1cc2ccccc2c(S(=O)(=O)O)c1O | > 100 µM | –
21 | CCOC(=O)c1[nH]c2nc(SC)nc(NC)c2c1N | > 100 µM | –
22 | Cc1cccc(NC(Nc2cccc(C)c2)=C(C(Cl)=C(Cl)Cl)[N+](=O)[O-])c1 | 27.6 µM | –
23 | C/C(=N\Nc1nc2ccccc2s1)c1cccnn1 | 12.2 µM | –
24 | FC(F)=C(c1ccc(-c2ccc(Cl)cc2)cc1)C(F)(F)F | 57.9 µM | –
25 | Nc1n[nH]c2ccccc12 | > 100 µM | –
26 | COC(=O)[C@H]1C=C[C@H](OC2OC(COC(C)=O)C(OC(C)=O)C(OC(C)=O)C2OC(C)=O)n2c(=O)n(-c3ccccc3)c(=O)n21 (some centres not stated) | 26.4 µM | –

system: U251 CNS; assay: NCI tumour cell line growth inhibition, 48 h

Row | SMILES | TGI | GI50
27 | COc1cc2c(cc1O)CC[n+]1cc3c(OC)c(OC)ccc3cc1-2 | > 100 µM | –
28 | CC[P+](C#Cc1ccccc1)(c1ccccc1)c1ccccc1 | 4.48 µM | –
29 | Cc1ccc(C(=O)c2[nH]c(Nc3cc(C)ccn3)c(C(=S)Nc3ccccc3)c2N)cc1 | > 100 µM | –
30 | CC(C)Cc1c(C#N)c(C#N)c(N)n1Cc1ccccc1 | > 100 µM | –
31 | NS(=O)(=O)c1nnc(NSc2ccc([N+](=O)[O-])cc2)s1 | > 100 µM | –
32 | Nc1nc(Nc2ccc(OCc3cccc(F)c3)cc2)c2c(n1)[nH]c1ccc(O)cc12 | 6.09 µM | 2.44 µM
33 | CC1=NC(C)(C)N(O)C1(C)C | > 100 µM | –
34 | O=c1oc2ccccc2c2nc3ccccc3cc12 | 87.9 µM | –
35 | Clc1cccc(C2ON=C(c3ccccc3)N2C23CC4CC(CC(C4)C2)C3)c1Cl (configuration not stated) | > 10 µM | –
36 | CCN(CC(=O)O)CC(=O)O | > 100 µM | –
37 | Cc1cc(C)nc(NS(=O)(=O)c2ccc(Nc3c4ccccc4nc4c(C(=O)NCCO)cccc34)cc2)n1 | > 100 µM | –
38 | CC(C)(C)c1ccc2c(c1)OCc1n[nH]c(n1)COc1cc(C(C)(C)C)ccc1OCCOCCO2 | 13.7 µM | –
39 | COC1OC2COC(C)(C)OC2C2OC(C)(C)OC12 (configuration not stated) | > 100 µM | –
40 | CCNC(=S)N/N=C/c1ccccn1 | 75 µM | –
41 | COc1ccc(CCCCl)c(C2=NCCc3ccccc32)c1 | > 100 µM | –
42 | O=C1NN=C(c2c[nH]c3ccccc23)CC1NCc1ccccc1 (configuration not stated) | > 100 µM | –
43 | O=C(CN=C(CN(c1ccccc1)c1ccccc1)Oc1c(Cl)cc(Cl)cc1Cl)n1cnc2ccccc21 | > 100 µM | –
44 | C=C1CC=CC(C)(C)C1C/C=C(\C)C(O)CBr (configuration not stated) | > 100 µM | –
45 | O=C(NCCCNCCCCNCCCNC(=O)C(F)(F)F)C(F)(F)F | > 100 µM | –
46 | O=C(O)c1cc2ccccc2c(S(=O)(=O)O)c1O | > 100 µM | –
47 | CCOC(=O)c1[nH]c2nc(SC)nc(NC)c2c1N | > 100 µM | –
48 | Cc1cccc(NC(Nc2cccc(C)c2)=C(C(Cl)=C(Cl)Cl)[N+](=O)[O-])c1 | 36.3 µM | –
49 | C/C(=N\Nc1nc2ccccc2s1)c1cccnn1 | > 100 µM | –
50 | FC(F)=C(c1ccc(-c2ccc(Cl)cc2)cc1)C(F)(F)F | 31.4 µM | –
51 | Nc1n[nH]c2ccccc12 | > 100 µM | –
52 | COC(=O)[C@H]1C=C[C@H](OC2OC(COC(C)=O)C(OC(C)=O)C(OC(C)=O)C2OC(C)=O)n2c(=O)n(-c3ccccc3)c(=O)n21 (some centres not stated) | 27.9 µM | –

system: SK-OV-3 ovarian; assay: NCI tumour cell line growth inhibition, 48 h

Row | SMILES | TGI | GI50
53 | COc1cc2c(cc1O)CC[n+]1cc3c(OC)c(OC)ccc3cc1-2 | > 100 µM | –
54 | CC[P+](C#Cc1ccccc1)(c1ccccc1)c1ccccc1 | 9.43 µM | –
55 | Cc1ccc(C(=O)c2[nH]c(Nc3cc(C)ccn3)c(C(=S)Nc3ccccc3)c2N)cc1 | > 100 µM | –
56 | CC(C)Cc1c(C#N)c(C#N)c(N)n1Cc1ccccc1 | > 100 µM | –
57 | NS(=O)(=O)c1nnc(NSc2ccc([N+](=O)[O-])cc2)s1 | > 100 µM | –
58 | Nc1nc(Nc2ccc(OCc3cccc(F)c3)cc2)c2c(n1)[nH]c1ccc(O)cc12 | 31.3 µM | 17.1 µM
59 | CC1=NC(C)(C)N(O)C1(C)C | > 100 µM | –
60 | O=c1oc2ccccc2c2nc3ccccc3cc12 | > 100 µM | –
61 | Clc1cccc(C2ON=C(c3ccccc3)N2C23CC4CC(CC(C4)C2)C3)c1Cl (configuration not stated) | > 10 µM | –
62 | CCN(CC(=O)O)CC(=O)O | > 100 µM | –
63 | Cc1cc(C)nc(NS(=O)(=O)c2ccc(Nc3c4ccccc4nc4c(C(=O)NCCO)cccc34)cc2)n1 | > 100 µM | –
64 | CC(C)(C)c1ccc2c(c1)OCc1n[nH]c(n1)COc1cc(C(C)(C)C)ccc1OCCOCCO2 | 15.3 µM | –
